Measurements published in US20070128217A1 (priority 2003, published 2007).

Columns and labels:
[1] = test system: rabbit serum obtained by immunizing a rabbit with the SARS-CoV strain Frankfurt 1; assay type: binding; design: Binding of a rabbit serum to linear peptides / Binding of a rabbit serum to looped peptides / Rabbit serum linear peptides / Rabbit serum looped peptides / Binding of a rabbit serum to linear peptides of protein N of SARS-CoV Urbani (Rabbit serum linear peptides) / Binding of a rabbit serum to looped/cyclic peptides of protein N of SARS-CoV Urbani (Rabbit serum looped peptides): unit not given here
[2] = test system: antibodies in sera from SARS patients (sera 1a, 1b, 2, 6, 37, 62, London, SARS-yellow, SARS-green); assay type: binding, human; design: Binding of serum 6 to linear peptides of protein X1 of SARS-CoV Urbani / Binding of serum 37 to linear peptides of protein X1 of SARS-CoV Urbani / Binding of serum 6 to looped/cyclic peptide (PEPSCAN-ELISA) / Binding of serum 37 to looped/cyclic peptide (PEPSCAN-ELISA) / Binding of serum 37 to looped/cyclic peptides of protein X1 of SARS-CoV Urbani / Binding of serum 6 to linear peptides of protein X2 / Binding of serum 37 to linear peptides of protein X2 / Binding of serum 37 to looped/cyclic peptides of protein X2 of SARS-CoV Urbani / Binding of serum 6 to linear peptides of protein M of SARS-CoV Urbani / Binding of serum 37 to linear peptides of protein M of SARS-CoV Urbani / Binding of serum 6 to looped/cyclic peptides of protein M of SARS-CoV Urbani / Binding of serum 37 to looped/cyclic peptides of protein M of SARS-CoV Urbani / Binding of serum 6 to linear peptides of protein X3 of SARS-CoV Urbani / Binding of serum 37 to linear peptides of protein X3 of SARS-CoV Urbani / Binding of serum 37 to looped/cyclic peptides of protein X3 of SARS-CoV Urbani / Binding of serum 6 to linear peptides of protein X4 of SARS-CoV Urbani / Binding of serum 37 to linear peptides of protein X4 of SARS-CoV Urbani / Binding of serum 37 to looped/cyclic peptides of protein X4 of SARS-CoV Urbani / Binding of serum 6 to linear peptides of protein X5 of SARS-CoV Urbani / Binding of serum 37 to linear peptides of protein X5 of SARS-CoV Urbani / Binding of serum 37 to looped/cyclic peptides of protein X5 of SARS-CoV Urbani / Binding of serum 6 to linear peptides of protein N of SARS-CoV Urbani / Binding of serum 37 to linear peptides of protein N of SARS-CoV Urbani / Binding of serum 6 to linear peptide (PEPSCAN-ELISA) / Binding of serum 1a to looped/cyclic peptides of protein N of SARS-CoV Urbani / Binding of serum 1b to looped/cyclic peptides of protein N of SARS-CoV Urbani / Binding of serum 2 to looped/cyclic peptides of protein N of SARS-CoV Urbani / Binding of serum 6 to looped/cyclic peptides of protein N of SARS-CoV Urbani / Binding of serum 37 to looped/cyclic peptides of protein N of SARS-CoV Urbani / Binding of serum 62 to looped/cyclic peptides of protein N of SARS-CoV Urbani / Binding of serum London to looped/cyclic peptides of protein N of SARS-CoV Urbani / Binding of serum SARS-green to looped/cyclic peptides of protein N of SARS-CoV Urbani: unit not given here
[3] = test system: control sera (pooled serum of ten healthy LUMC hospital workers; commercial negative donor pooled serum from the Dutch bloodbank); assay type: binding, human; design: Binding of Control serum LUMC to linear peptides / Binding of Control serum Blood-bank to linear peptides / Binding of Control serum LUMC to looped peptides / Binding of Control Serum Blood-Bank to Looped peptides / Binding of Control serum LUMC to linear peptides of the protein M of SARS-CoV Urbani / Binding of Control serum Blood-bank to linear peptides of the protein M of SARS-CoV Urbani / Binding of Control serum LUMC to looped peptides of the protein M of SARS-CoV Urbani / Binding of Control Serum Blood-Bank to Looped peptides of the protein M of SARS-CoV Urbani: unit not given here

In the case of ATSRTLSYYKLGASQ, the “Rabbit serum linear peptides” value [1] was 0.6, the “Rabbit serum looped peptides” value [1] was 0.4 and the “Binding of serum 1a to linear peptides of protein M of SARS-CoV Urbani” value [2] was 0.7. The “Binding of serum 1a to looped/cyclic peptides of protein M of SARS-CoV Urbani” value [2] was 0.8, the “Binding of serum 1b to linear peptides of protein M of SARS-CoV Urbani” value [2] was 0.5 and the “Binding of serum 1b to looped/cyclic peptides of protein M of SARS-CoV Urbani” value [2] was 0.2. For the same sequence, the “Binding of serum 2 to linear peptides of protein M of SARS-CoV Urbani” value [2] was 0.7, the “Binding of serum 2 to looped/cyclic peptides of protein M of SARS-CoV Urbani” value [2] was 0.6 and the “Binding of serum 6 to linear peptides of protein M of SARS-CoV Urbani” value [2] was 0.3. For the same sequence, the “Binding of serum 6 to looped/cyclic peptides of protein M of SARS-CoV Urbani” value [2] was 0.8, the “Binding of serum 37 to linear peptides of protein M of SARS-CoV Urbani” value [2] was 0.8 and the “Binding of serum 37 to looped/cyclic peptides of protein M of SARS-CoV Urbani” value [2] was 0.6. For the same sequence, the “Binding of serum 62 to linear peptides of protein M of SARS-CoV Urbani” value [2] was 0.7, the “Binding of serum 62 to looped/cyclic peptides of protein M of SARS-CoV Urbani” value [2] was 0.5 and the “Binding of serum London to linear peptides of protein M of SARS-CoV Urbani” value [2] was 0.3. The “Binding of serum London to looped/cyclic peptides of protein M of SARS-CoV Urbani” value [2] was 0.3, the “Binding of serum SARS-green to linear peptides of protein M of SARS-CoV Urbani” value [2] was 0.2 and the “Binding of serum SARS-green to looped/cyclic peptides of protein M of SARS-CoV Urbani” value [2] was 0.3. For the same sequence, the “Binding of serum SARS-yellow to linear peptides of protein M of SARS-CoV Urbani” value [2] was 0.1, the “Binding of serum SARS-yellow to looped/cyclic peptides of protein M of SARS-CoV Urbani” value [2] was 0.7 and the “Binding of Control Serum Blood-Bank to Looped peptides of the protein M of SARS-CoV Urbani” value [3] was 0.6. For the same sequence, the “Binding of Control serum Blood-bank to linear peptides of the protein M of SARS-CoV Urbani” value [3] was 0.7, the “Binding of Control serum LUMC to linear peptides of the protein M of SARS-CoV Urbani” value [3] was 0.3 and the “Binding of Control serum LUMC to looped peptides of the protein M of SARS-CoV Urbani” value [3] was 0.6.
With VTRPLMESELVIGAV the “Rabbit serum linear peptides” value [1] was 0.4, the “Rabbit serum looped peptides” value [1] was 0.2 and the “Binding of serum 1a to linear peptides of protein M of SARS-CoV Urbani” value [2] was 0.8. For the same sequence, the “Binding of serum 1b to linear peptides of protein M of SARS-CoV Urbani” value [2] was 0.6, the “Binding of serum 2 to linear peptides of protein M of SARS-CoV Urbani” value [2] was 0.9 and the “Binding of serum 6 to linear peptides of protein M of SARS-CoV Urbani” value [2] was 0.2. The “Binding of serum 37 to linear peptides of protein M of SARS-CoV Urbani” value [2] was 1.0, the “Binding of serum 62 to linear peptides of protein M of SARS-CoV Urbani” value [2] was 0.9 and the “Binding of serum London to linear peptides of protein M of SARS-CoV Urbani” value [2] was 0.3. For the same sequence, the “Binding of serum SARS-green to linear peptides of protein M of SARS-CoV Urbani” value [2] was 0.3, the “Binding of serum SARS-yellow to linear peptides of protein M of SARS-CoV Urbani” value [2] was 0.1 and the “Recognition of the peptide by sera of SARS-CoV infected individuals, and form (linear, looped/cyclic) in which it is recognized” value [2] was “recognized in looped/cyclic form”. For the same sequence, the “Binding of Control Serum Blood-Bank to Looped peptides of the protein M of SARS-CoV Urbani” value [3] was 0.9, the “Binding of Control serum Blood-bank to linear peptides of the protein M of SARS-CoV Urbani” value [3] was 0.6 and the “Binding of Control serum LUMC to linear peptides of the protein M of SARS-CoV Urbani” value [3] was 0.4. For the same sequence, the “Binding of Control serum LUMC to looped peptides of the protein M of SARS-CoV Urbani” value [3] was 1.0.
HKLLQTLVLKMLHSS was tested, and the “Binding of a rabbit serum to linear peptides” value [1] was 0.2, the “Binding of a rabbit serum to looped peptides” value [1] was 0.4 and the “Binding of serum 1a to linear peptides of protein X2” value [2] was 0.5. For the same sequence, the “Binding of serum 1a to looped/cyclic peptides of protein X2 of SARS-CoV Urbani” value [2] was 0.6, the “Binding of serum 1b to linear peptides of protein X2” value [2] was 0.5 and the “Binding of serum 1b to looped/cyclic peptides of protein X2 of SARS-CoV Urbani” value [2] was 0.6. For the same sequence, the “Binding of serum 2 to linear peptides of protein X2” value [2] was 0.4, the “Binding of serum 2 to looped/cyclic peptides of protein X2 of SARS-CoV Urbani” value [2] was 0.4 and the “Binding of serum 6 to linear peptides of protein X2” value [2] was 0.2. For the same sequence, the “Binding of serum 6 to looped/cyclic peptides of protein X2 of SARS-CoV Urbani” value [2] was 0.4, the “Binding of serum 37 to linear peptides of protein X2” value [2] was 0.5 and the “Binding of serum 37 to looped/cyclic peptides of protein X2 of SARS-CoV Urbani” value [2] was 0.5. The “Binding of serum 62 to linear peptides of protein X2” value [2] was 0.5, the “Binding of serum 62 to looped/cyclic peptides of protein X2 of SARS-CoV Urbani” value [2] was 0.7 and the “Binding of serum London to linear peptides of protein X2” value [2] was 0.4. The “Binding of serum London to looped/cyclic peptides of protein X2 of SARS-CoV Urbani” value [2] was 0.3, the “Binding of serum SARS-green to linear peptides of protein X2” value [2] was 0.4 and the “Binding of serum SARS-green to looped/cyclic peptides of protein X2 of SARS-CoV Urbani” value [2] was 0.3. For the same sequence, the “Binding of serum SARS-yellow to linear peptides of protein X2” value [2] was 0.5, the “Binding of serum SARS-yellow to looped/cyclic peptides of protein X2 of SARS-CoV Urbani” value [2] was 0.5 and the “Binding of Control Serum Blood-Bank to Looped peptides” value [3] was 0.7. For the same sequence, the “Binding of Control serum Blood-bank to linear peptides” value [3] was 0.6, the “Binding of Control serum LUMC to linear peptides” value [3] was 0.4 and the “Binding of Control serum LUMC to looped peptides” value [3] was 0.7.
